Structures can show the parent of a compound that is named as a salt.

The experiment addresses T1, recombinant guanylate cyclase reporter cell line (Rattus norvegicus, UniProt P19686+P20595).
T1 construct: expressed in transfected cells; host or cells: recombinant reporter cell line
T1 sequence (P19686 1-690): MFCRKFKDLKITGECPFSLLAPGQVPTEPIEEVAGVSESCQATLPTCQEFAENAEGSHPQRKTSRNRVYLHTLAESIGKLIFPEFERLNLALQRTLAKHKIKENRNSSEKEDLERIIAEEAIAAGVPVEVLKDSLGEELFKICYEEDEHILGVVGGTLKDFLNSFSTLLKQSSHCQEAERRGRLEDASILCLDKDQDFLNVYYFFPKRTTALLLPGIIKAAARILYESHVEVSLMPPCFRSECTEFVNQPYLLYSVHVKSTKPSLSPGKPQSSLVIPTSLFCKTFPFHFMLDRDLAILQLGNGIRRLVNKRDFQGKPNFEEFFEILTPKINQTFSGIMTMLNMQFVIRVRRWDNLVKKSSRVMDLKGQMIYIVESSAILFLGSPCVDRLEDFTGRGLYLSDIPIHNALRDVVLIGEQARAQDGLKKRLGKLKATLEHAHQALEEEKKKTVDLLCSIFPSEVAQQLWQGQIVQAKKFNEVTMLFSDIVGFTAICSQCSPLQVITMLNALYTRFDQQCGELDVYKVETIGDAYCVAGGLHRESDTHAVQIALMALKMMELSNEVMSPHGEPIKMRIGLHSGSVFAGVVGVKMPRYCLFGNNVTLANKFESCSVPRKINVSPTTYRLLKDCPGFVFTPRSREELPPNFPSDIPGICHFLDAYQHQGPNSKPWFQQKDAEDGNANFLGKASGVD
T1 sequence (P20595 1-619): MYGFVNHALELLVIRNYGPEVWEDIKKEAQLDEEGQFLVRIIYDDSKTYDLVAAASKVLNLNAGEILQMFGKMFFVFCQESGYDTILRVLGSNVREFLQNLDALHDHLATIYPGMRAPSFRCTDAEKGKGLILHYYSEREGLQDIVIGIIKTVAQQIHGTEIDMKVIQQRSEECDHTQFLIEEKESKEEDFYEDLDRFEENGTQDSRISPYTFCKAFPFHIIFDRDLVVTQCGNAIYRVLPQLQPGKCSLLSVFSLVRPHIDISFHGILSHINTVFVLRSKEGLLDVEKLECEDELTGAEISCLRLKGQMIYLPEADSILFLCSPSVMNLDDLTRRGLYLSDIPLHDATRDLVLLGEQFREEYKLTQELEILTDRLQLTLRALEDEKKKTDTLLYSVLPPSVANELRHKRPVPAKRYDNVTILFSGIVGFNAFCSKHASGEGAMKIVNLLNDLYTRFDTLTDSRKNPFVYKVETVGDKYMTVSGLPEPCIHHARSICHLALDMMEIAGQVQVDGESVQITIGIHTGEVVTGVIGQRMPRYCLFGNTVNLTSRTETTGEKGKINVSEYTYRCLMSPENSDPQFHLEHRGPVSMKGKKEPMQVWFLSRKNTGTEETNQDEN
Briefly: Action on recombinant guanylate cyclase reporter cell line. Conditions: in some cases mean values from individual determinations. Type of experiment: cell-based. In outline: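 Rat recombinant guanylate cyclase reporter cell line measures cellular activity. Value reported as MEC (minimal effective concentration), sometimes averaged over individual determinations.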
Take `Cc1cc(OCc2c(F)cccc2F)c2nc(C)c(C(=O)NCCN3CCN(C)CC3)n2c1` [Example 137, 8-[(2,6-difluorobenzyl)oxy]-2,6-dimethyl-N-[2-(4-methylpiperazin-1-yl)ethyl]imidazo[1,2-a]-pyridine-3-carboxamide]: the “MEC (minimal effective concentration)” value came to 1.00 µM.

`Cc1cc(OCc2c(F)cccc2F)c2nc(C)c(C(=O)NCC(C)(N)COc3ccc(F)c(F)c3)n2c1` (racemic) [Example 350, rac-N-[2-amino-3-(3,4-difluorophenoxy)-2-methylpropyl]-8-[(2,6-difluorobenzyl)oxy]-2,6-dimethylimidazo[1,2-a]pyridine-3-carboxamide]: the “MEC (minimal effective concentration)” value was 1.00 µM. `Cc1nc2c(OCc3c(F)cccc3F)cccn2c1C(=O)NC(C)[C@H](C)N` (single isomer, unassigned) [Example 175]: the “MEC (minimal effective concentration)” value came to 1.00 µM.

Turning to `CCCC(C)(N)CNC(=O)c1c(C)nc2c(OCc3c(F)cccc3F)cccn12` (stereo not drawn) [Example 318, ent-N-(2-amino-2-methylpentyl)-8-[(2,6-difluorobenzyl)oxy]-2-methylimidazo[1,2-a]pyridine-3-carboxamide], the “MEC (minimal effective concentration)” value stood at 0.30 µM. Turning to `Cc1nc2c(OCc3c(F)cccc3F)cc(F)cn2c1C(=O)NC(CN)c1ccc(F)c(F)c1` (stereo not drawn) [Example 53, ent-N-[2-Amino-1-(3,4-difluorophenyl)ethyl]-8-[(2,6-difluorobenzyl)oxy]-6-fluoro-2-methyl-imidazo[1,2-a]pyridine-3-carboxamide], the “MEC (minimal effective concentration)” value stood at 0.30 µM. Take `COCC(N)CNC(=O)c1c(C)nc2c(OCc3c(F)cccc3F)cccn12` (single isomer, unassigned; enantiomer a) [Example 247, ent-N-(2-Amino-3-methoxypropyl)-8-[(2,6-difluorobenzyl)oxy]-2-methylimidazo[1,2-a]pyridine-3-carboxamide (Enantiomer A)]: the “MEC (minimal effective concentration)” value worked out at 3.00 µM.

For the compound `Cc1cc(OCc2c(F)cccc2F)c2nc(C)c(C(=O)NC3CCNC(C(F)(F)F)C3)n2c1` (racemic) [Example 302, rac-8-[(2,6-difluorobenzyl)oxy]-2,6-dimethyl-N-[2-(trifluoromethyl)piperidin-4-yl]imidazo[1,2-a]pyridine-3-carboxamide], the “MEC (minimal effective concentration)” value came out at 0.10 µM. Regarding `Cc1cc(OCc2c(F)cccc2F)c2nc(C)c(C(=O)NCC(N)C#N)n2c1` (single isomer, unassigned; enantiomer a) [Example 401, ent-N-(2-amino-2-cyanoethyl)-8-[(2,6-difluorobenzyl)oxy]-2,6-dimethylimidazo[1,2-a]pyridine-3-carboxamide (Enantiomer A)], the “MEC (minimal effective concentration)” value was determined as 1.00 µM.

For `CCCC[C@H](CN1CCOCC1)NC(=O)c1c(C)nc2c(OCc3c(F)cccc3F)cccn12` [Example 64, ent-8-[(2,6-Difluorobenzyl)oxy]-2-methyl-N-[(2R)-1-(morpholin-4-yl)hexan-2-yl]imidazo[1,2-a]-pyridine-3-carboxamide], the “MEC (minimal effective concentration)” value was 0.30 µM. `Cc1nc2c(OCc3c(F)cccc3F)cc(Cl)cn2c1C(=O)NC(C)CN` (stereo not drawn) [Example 22, ent-N-(1-aminopropan-2-yl)-6-chloro-8-[(2,6-difluorobenzyl)oxy]-2-methylimidazo[1,2-a]-pyridine-3-carboxamide]: the “MEC (minimal effective concentration)” value is 0.30 µM. In the case of `Cc1cc(OCc2c(F)cccc2F)c2nc(C)c(C(=O)NCCN3CC(N4CCCC4)C3)n2c1` [Example 162, 8-[(2,6-difluorobenzyl)oxy]-2,6-dimethyl-N-{2-[3-(pyrrolidin-1-yl)azetidin-1-yl]ethyl}imidazo[1,2-a]pyridine-3-carboxamide] it was 3.00 µM. To `Cc1cc(OCc2c(F)cccc2F)c2nc(C)c(C(=O)NCC(C)(N)CCO)n2c1` (single isomer, unassigned; enantiomer a) [Example 271, ent-N-(2-Amino-4-hydroxy-2-methylbutyl)-8-[(2,6-difluorobenzyl)oxy]-2,6-dimethylimidazo[1,2-a]pyridine-3-carboxamide (Enantiomer A)] belongs 0.30 µM.

As for `Cc1cc(OCc2c(F)cccc2F)c2nc(C)c(C(=O)NCC(C)(N)CCO)n2c1` (racemic) [Example 270, rac-N-(2-Amino-4-hydroxy-2-methylbutyl)-8-[(2,6-difluorobenzyl)oxy]-2,6-dimethylimidazo[1,2-a]pyridine-3-carboxamide], the “MEC (minimal effective concentration)” value is 1.00 µM. For `Cc1cc(OCc2c(F)cccc2F)c2nc(C)c(C(=O)NC3CCC3(C)N)n2c1` (single isomer, unassigned; enantiomer a) [Example 332, ent-N-[2-amino-2-methylcyclobutyl]-8-[(2,6-difluorobenzyl)oxy]-2,6-dimethylimidazo[1,2-a]pyridine-3-carboxamide (Enantiomer A)], the “MEC (minimal effective concentration)” value worked out at 1.00 µM. In the case of `CCCC[C@H](CNCCOC)NC(=O)c1c(C)nc2c(OCc3c(F)cccc3F)cccn12` [Example 70, ent-8-[(2,6-difluorobenzyl)oxy]-N-{(2R)-1-[(2-methoxyethyl)amino]hexan-2-yl}-2-methylimidazo[1,2-a]pyridine-3-carboxamide], the “MEC (minimal effective concentration)” value is 1.00 µM. In the case of `Cc1nc2c(OCc3c(F)cccc3F)cc(Cl)cn2c1C(=O)NCCN1C[C@@H](C)O[C@@H](C)C1` [Example 158, 6-chloro-8-[(2,6-difluorobenzyl)oxy]-N-{2-[(2R,6S)-2,6-dimethylmorpholin-4-yl]ethyl}-2-methylimidazo[1,2-a]pyridine-3-carboxamide] it was 0.30 µM; in that of `CCCC(C)(N)CNC(=O)c1c(C)nc2c(OCc3c(F)cccc3F)cc(C)cn12` (racemic) [Example 232, rac-N-(2-Amino-2-methylpentyl)-8-[(2,6-difluorobenzyl)oxy]-2,6-dimethylimidazo[1,2-a]pyridine-3-carboxamide], 0.10 µM; in that of `CCCC(C)(N)CNC(=O)c1c(C)nc2c(OCc3ccccc3Cl)cc(C)cn12` (racemic) [Example 343, rac-N-(2-amino-2-methylpentyl)-8-[(2-chlorobenzyl)oxy]-2,6-dimethylimidazo[1,2-a]pyridine-3-carboxamide], 1.00 µM. Turning to `CSCCC(N)CNC(=O)c1c(C)nc2c(OCc3c(F)cccc3F)cc(C)cn12` (racemic) [Example 412, rac-N-[2-amino-4-(methylsulfanyl)butyl]-8-[(2,6-difluorobenzyl)oxy]-2,6-dimethylimidazo[1,2-a]pyridine-3-carboxamide], the “MEC (minimal effective concentration)” value was 0.10 µM. Regarding `COCC(C)(N)CNC(=O)c1c(C)nc2c(OCc3c(F)cccc3F)cc(Cl)cn12` (single isomer, unassigned) [Example 197, ent-N-(2-Amino-3-methoxy-2-methylpropyl)-6-chloro-8-[(2,6-difluorobenzyl)oxy]-2-methylimidazo[1,2-a]pyridine-3-carboxamide], the “MEC (minimal effective concentration)” value came out at 1.00 µM. To `Cc1nc2c(OCc3c(F)cccc3F)cc(Cl)cn2c1C(=O)NCCC(C)(C)N` [Example 104, N-(3-Amino-3-methylbutyl)-6-chloro-8-[(2,6-difluorobenzyl)oxy]-2-methylimidazo[1,2-a]-pyridine-3-carboxamide] belongs 0.30 µM. As for `Cc1nc2c(OCc3c(F)cccc3F)cccn2c1C(=O)NC(CN)COc1ccccc1` (racemic) [Example 59, rac-N-(1-amino-3-phenoxypropan-2-yl)-8-[(2,6-difluorobenzyl)oxy]-2-methylimidazo[1,2-a]-pyridine-3-carboxamide dihydrochloride], the “MEC (minimal effective concentration)” value is 3.00 µM. As to `CSCCC(CN)NC(=O)c1c(C)nc2c(OCc3c(F)cccc3F)cc(C)cn12` (racemic) [Example 391, rac-N-[1-amino-4-(methylsulfanyl)butan-2-yl]-8-[(2,6-difluorobenzyl)oxy]-2,6-dimethylimidazo[1,2-a]pyridine-3-carboxamide], the “MEC (minimal effective concentration)” value came to 0.10 µM.

The values above are taken from patent publication US20150274719A1, “AMINO-SUBSTITUTED IMIDAZO[1,2-A]PYRIDINECARBOXAMIDES AND THEIR USE” (BAYER PHARMA AKTIENGESELLSCHAFT, priority 2012, published 2015).
